Laboratory results published in patent publication US8426353B2, “Process for preparing polyurea microcapsules” (Firmenich SA, priority 2008, dated 2013).
Like-named read-outs stand apart in the source and are kept apart here.

How the values were obtained:
[1] = GC-MS analysis of perfume leaked out of the capsules during one month storage in concentrated fabric softener; type: physicochemical; details: for Percentage of ingredient having leaked out of the capsules during one month storage, % In fabric softener 37° C.: perfume of Example 6 encapsulated per Example 2, capsules at 1.25%; for Percentage of ingredient having leaked out of the capsules during one month storage, % In fabric softener 37° C. / Percentage of perfume having leaked out of the capsules upon one month storage, % In fabric softener at 37° C.: one month at 37° C.; for Percentage of perfume having leaked out of the capsules upon one month storage, % In fabric softener at 22° C. / Percentage of perfume having leaked out of the capsules upon one month storage, % In fabric softener at 37° C.: perfume of Example 9 encapsulated per Example 2, capsules at 1.25%; for Percentage of perfume having leaked out of the capsules upon one month storage, % In fabric softener at 22° C.: one month at 22° C.
Description: The concentrated fabric softener base was prepared by admixing the ingredients listed in Table 4, in the amounts indicated.

[2] = LogP of the perfume ingredients
[3] = GC-MS analysis of perfume leaked out of the capsules during one month storage in concentrated liquid detergent; type: physicochemical; details: for Percentage of ingredient having leaked out of the capsules during one month storage, % In concentrated Liquid Detergent 22° C. / Percentage of ingredient having leaked out of the capsules during one month storage, % In concentrated Liquid Detergent 37° C.: perfume of Example 6 encapsulated per Example 2, capsules at 1.25% in Tide 2x Concentrated HE Free; for Percentage of ingredient having leaked out of the capsules during one month storage, % In concentrated Liquid Detergent 22° C. / Percentage of perfume having leaked out of the capsules upon one month storage, % In Concentrated Liquid Detergent at 22° C.: one month at 22° C.; for Percentage of ingredient having leaked out of the capsules during one month storage, % In concentrated Liquid Detergent 37° C. / Percentage of perfume having leaked out of the capsules upon one month storage, % In Concentrated Liquid Detergent at 37° C.: one month at 37° C.; for Percentage of perfume having leaked out of the capsules upon one month storage, % In Concentrated Liquid Detergent at 22° C. / Percentage of perfume having leaked out of the capsules upon one month storage, % In Concentrated Liquid Detergent at 37° C.: perfume of Example 9 encapsulated per Example 2, capsules at 1.25% in Tide 2x Concentrated HE Free
Text: The concentrated liquid detergent base was a commercially available Tide® 2× Concentrated HE Free of perfume & dye (trademark of Procter and Gamble, USA).
The concentrated liquid detergent base was the commercially available Tide® 2× Concentrated HE Free of perfume & dye (trademark of Procter and Gamble, USA).

[4] = ingredients of the perfume of Example 9 (Table 9)
[5] = ingredients of the perfume of Example 6 (Table 1)

Row | Compound | Percentage of ingredient having leaked out of the capsules during one month storage, % In fabric softener 37° C. [1] [%] | Percentage of perfume having leaked out of the capsules upon one month storage, % In fabric softener at 22° C. [1] [%] | Percentage of perfume having leaked out of the capsules upon one month storage, % In fabric softener at 37° C. [1] [%] | LogP [2] | LogP [2, 4] | Percentage of ingredient having leaked out of the capsules during one month storage, % In concentrated Liquid Detergent 22° C. [3] [%] | Percentage of ingredient having leaked out of the capsules during one month storage, % In concentrated Liquid Detergent 37° C. [3] [%] | Percentage of perfume having leaked out of the capsules upon one month storage, % In Concentrated Liquid Detergent at 22° C. [3] [%] | Percentage of perfume having leaked out of the capsules upon one month storage, % In Concentrated Liquid Detergent at 37° C. [3] [%] | LogP [2, 5]
1 | CC(C=O)Cc1ccc(C(C)(C)C)cc1 (stereo not drawn) [Lilial ®, 3-(4-tert-butylphenyl)-2-methylpropanal] | 3 | 0 | 7 | 4.36 | 4.36 | 1 | 14 | 0 | 18 | 
2 | CC(C)=CCCC1=CCC(C)(C=O)CC1 (stereo not drawn) [1-Methyl-4-(4-methyl-3-pentenyl)-3-cyclohexene-1-carbaldehyde] | 1 |  |  | 5.19 |  | 2 | 20 |  |  | 
3 | C=CCOC(=O)COC1CCCCC1 [Cyclogalbanate, Allyl (cyclohexyloxy)-acetate] |  | 15 | 82 |  |  |  |  | 15 |  | 
4 | CC1=CC(C)C(C=O)CC1 (stereo not drawn) [2,4-Dimethyl-3-cyclohexene-1-carbaldehyde] |  | 20 | 40 |  |  |  |  | 20 | 70 | 
5 | CCCC(C)C(=O)OCC (stereo not drawn) [Ethyl 2-methyl-pentanoate] |  | 48 | 99 |  | 2.76 |  |  | 48 | 99 | 
6 | CC(=O)/C=C/C1=C(C)CCCC1(C)C [β-Ionone] | 5 | 3 | 13 |  |  | 1 | 14 | 3 | 27 | 
7 | C/C=C/C(=O)C1C(C)C=CCC1(C)C (stereo not drawn) [δ-Damascone] | 3 | 3 | 10 |  | 4.13 | 1 | 8 | 3 | 16 | 4.13
8 | CC(=O)OC1CC2CC1C1CC=CC21 (stereo not drawn) [Verdylate] | 5 |  |  |  |  | 1 | 14 |  |  | 3.76
9 | CC1(O)CCC2C(=CCCC2(C)C)C1 (stereo not drawn) [Octalynol] | 3 |  |  |  |  |  |  |  |  | 4.28
10 | O=C1CCCCCCCCC/C=C/CCCO1 [Habanolide ®, pentadecenolide] | 1 | 0 | 0 |  |  | 0 | 0 | 0 | 0 | 
11 | CC(=O)OC1CC2CC1C1CC=CC21 (stereo not drawn) [Verdyl acetate, Verdyl Acetate] |  | 6 | 10 |  | 2.85 |  |  | 6 | 80 | 
12 | (1′R,E)-3,3-dimethyl-5-(2′,2′,3′-trimethyl-3′-cyclopenten-1′-yl)-4-penten-2-ol [Polysantol ®] | 2 |  |  |  |  | 1 | 6 |  |  | 5.39
13 | CC1(C)CCCC2(C)C1CCC1(C)OCCC12 (stereo not drawn) [Cetalox ®, dodecahydro-3a,6,6,9a-tetramethyl-naphtho[2,1-b]furan] | 3 |  |  |  |  | 0 | 4 |  |  | 
14 | O=C(OC1CCCCC1)c1ccccc1O [Cyclohexyl salicylate] | 7 |  |  | 4.87 |  | 1 | 25 |  |  | 
15 | Terpenyl acetate |  | 3 | 17 |  | 4.34 |  |  | 3 | 37 | 
16 | CC(=O)OC/C=C(\C)CCC=C(C)C [Geranyl acetate] |  | 10 | 53 | 4.48 |  |  |  | 10 | 77 | 
17 | CCC(=O)OC1CC2CC1C1CC=CC21 (stereo not drawn) [Verdyl propionate] |  | 5 | 8 |  | 3.34 |  |  | 5 | 51 | 
18 | CC(=O)OC1CCC(C(C)(C)C)CC1 (stereo not drawn) [Lorysia ®, 4-(1,1-dimethylethyl)-1-cyclohexyl acetate] | 5 |  |  | 4.42 |  | 1 | 11 |  |  | 
19 | CC(=O)C1(C)CC2=C(CCCC2(C)C)CC1C (stereo not drawn) [Iso E super ®, 1-(octahydro-2,3,8,8-tetramethyl-2-naphtalenyl)-1-ethanone] | 4 | 2 | 4 |  | 4.71 | 1 | 4 | 2 | 9 | 4.71
20 | CC(=O)O[C@@H]1C[C@H]2CC[C@]1(C)C2(C)C (racemic) [Isobornyl acetate] |  | 4 | 12 | 3.86 |  |  |  | 4 | 21 | 
21 | CC(=O)OC1CCCCC1C(C)(C)C (stereo not drawn) [Verdox ®, 2-Tert-butyl-1-cyclohexyl acetate] |  | 3 | 8 |  |  |  |  | 3 | 17 | 
22 | CCCCCCCCCCCCCC(=O)OC(C)C [Isopropyl myristate] |  |  |  | 7.17 |  |  |  |  |  | 
